{"source": "ChEMBL document CHEMBL3045319", "about": "“Synthesis, antitumor activity, and structureactivity relationship of some 4H-pyrano[3,2-h]quinoline and 7H-pyrimido[4,5:6,5]pyrano[3,2-h]quinoline derivatives” (Med Chem Res, 2013)", "data": [{"system": "HepG2", "assay": "Cytotoxicity against Homo sapiens (human) HepG2 cells after 48 hr by MTT assay", "type": "functional, cell-based", "details": "Homo sapiens, HepG2, 48 h; read-out: IC50", "units": {"IC50": "µg/mL"}, "values": [{"smiles": "Cc1ccc2ccc3c(c2n1)OC(/N=C/N(C)C)=C(C#N)C3c1ccc(Cl)cc1", "note": "(configuration not stated)", "IC50": "> 50"}, {"smiles": "N#CC1=C(/N=C/c2ccccc2)Oc2c(ccc3cccnc23)C1c1ccc(Cl)cc1", "note": "(configuration not stated)", "IC50": 2.8}]}, {"system": "HepG2", "assay": "Cytotoxicity against Homo sapiens (human) HepG2 cells assessed as cell viability at 1.56 ug/ml after 48 hr by MTT assay relative to control", "type": "functional", "details": "HepG2, 48 h, read-out: Activity", "units": {"viability at 1.56 µg/mL": "%"}, "values": [{"smiles": "Cc1ccc2ccc3c(c2n1)OC(/N=C/N(C)C)=C(C#N)C3c1ccc(Cl)cc1", "note": "(configuration not stated)", "viability at 1.56 µg/mL": 100}, {"smiles": "N#CC1=C(/N=C/c2ccccc2)Oc2c(ccc3cccnc23)C1c1ccc(Cl)cc1", "note": "(configuration not stated)", "viability at 1.56 µg/mL": 56.1}]}, {"system": "HepG2", "assay": "Cytotoxicity against Homo sapiens (human) HepG2 cells assessed as cell viability at 3.125 ug/ml after 48 hr by MTT assay relative to control", "type": "functional", "details": "HepG2, 48 h, read-out: Activity", "units": {"viability at 3.125 µg/mL": "%"}, "values": [{"smiles": "Cc1ccc2ccc3c(c2n1)OC(/N=C/N(C)C)=C(C#N)C3c1ccc(Cl)cc1", "note": "(configuration not stated)", "viability at 3.125 µg/mL": 100}, {"smiles": "N#CC1=C(/N=C/c2ccccc2)Oc2c(ccc3cccnc23)C1c1ccc(Cl)cc1", "note": "(configuration not stated)", "viability at 3.125 µg/mL": 48.9}]}, {"system": "HepG2", "assay": "Cytotoxicity against Homo sapiens (human) HepG2 cells assessed as cell viability at 6.25 ug/ml after 48 hr by MTT assay relative to control", "type": "functional", "details": "HepG2, 48 h, read-out: Activity", "units": {"viability at 6.25 µg/mL": "%"}, "values": [{"smiles": "Cc1ccc2ccc3c(c2n1)OC(/N=C/N(C)C)=C(C#N)C3c1ccc(Cl)cc1", "note": "(configuration not stated)", "viability at 6.25 µg/mL": 97.8}, {"smiles": "N#CC1=C(/N=C/c2ccccc2)Oc2c(ccc3cccnc23)C1c1ccc(Cl)cc1", "note": "(configuration not stated)", "viability at 6.25 µg/mL": 42.5}]}, {"system": "HepG2", "assay": "Cytotoxicity against Homo sapiens (human) HepG2 cells assessed as cell viability at 12.5 ug/ml after 48 hr by MTT assay relative to control", "type": "functional", "details": "HepG2, 48 h, read-out: Activity", "units": {"viability at 12.5 µg/mL": "%"}, "values": [{"smiles": "Cc1ccc2ccc3c(c2n1)OC(/N=C/N(C)C)=C(C#N)C3c1ccc(Cl)cc1", "note": "(configuration not stated)", "viability at 12.5 µg/mL": 94.7}, {"smiles": "N#CC1=C(/N=C/c2ccccc2)Oc2c(ccc3cccnc23)C1c1ccc(Cl)cc1", "note": "(configuration not stated)", "viability at 12.5 µg/mL": 37.9}]}, {"system": "HepG2", "assay": "Cytotoxicity against Homo sapiens (human) HepG2 cells assessed as cell viability at 25 ug/ml after 48 hr by MTT assay relative to control", "type": "functional", "details": "HepG2, 48 h, read-out: Activity", "units": {"viability at 25 µg/mL": "%"}, "values": [{"smiles": "Cc1ccc2ccc3c(c2n1)OC(/N=C/N(C)C)=C(C#N)C3c1ccc(Cl)cc1", "note": "(configuration not stated)", "viability at 25 µg/mL": 81.5}, {"smiles": "N#CC1=C(/N=C/c2ccccc2)Oc2c(ccc3cccnc23)C1c1ccc(Cl)cc1", "note": "(configuration not stated)", "viability at 25 µg/mL": 31.4}]}, {"system": "HepG2", "assay": "Cytotoxicity against Homo sapiens (human) HepG2 cells assessed as cell viability at 50 ug/ml after 48 hr by MTT assay relative to control", "type": "functional", "details": "HepG2, 48 h, read-out: Activity", "units": {"viability at 50 µg/mL": "%"}, "values": [{"smiles": "Cc1ccc2ccc3c(c2n1)OC(/N=C/N(C)C)=C(C#N)C3c1ccc(Cl)cc1", "note": "(configuration not stated)", "viability at 50 µg/mL": 68.2}, {"smiles": "N#CC1=C(/N=C/c2ccccc2)Oc2c(ccc3cccnc23)C1c1ccc(Cl)cc1", "note": "(configuration not stated)", "viability at 50 µg/mL": 18.6}]}, {"system": "not listed separately", "assay": "Cytotoxicity against Homo sapiens (human) HCT cells after 48 hr by MTT assay", "type": "functional, cell-based", "details": "not given", "units": {"IC50": "µg/mL"}, "values": [{"smiles": "Cc1ccc2ccc3c(c2n1)OC(/N=C/N(C)C)=C(C#N)C3c1ccc(Cl)cc1", "note": "(configuration not stated)", "IC50": 28.2}, {"smiles": "N#CC1=C(/N=C/c2ccccc2)Oc2c(ccc3cccnc23)C1c1ccc(Cl)cc1", "note": "(configuration not stated)", "IC50": 0.6}]}, {"system": "not listed separately", "assay": "Cytotoxicity against Homo sapiens (human) HCT cells assessed as cell viability at 1.56 ug/ml after 48 hr by MTT assay relative to control", "type": "functional", "details": "read-out: Activity", "units": {"viability at 1.56 µg/mL": "%"}, "values": [{"smiles": "Cc1ccc2ccc3c(c2n1)OC(/N=C/N(C)C)=C(C#N)C3c1ccc(Cl)cc1", "note": "(configuration not stated)", "viability at 1.56 µg/mL": 82}, {"smiles": "N#CC1=C(/N=C/c2ccccc2)Oc2c(ccc3cccnc23)C1c1ccc(Cl)cc1", "note": "(configuration not stated)", "viability at 1.56 µg/mL": 38.5}]}, {"system": "not listed separately", "assay": "Cytotoxicity against Homo sapiens (human) HCT cells assessed as cell viability at 6.25 ug/ml after 48 hr by MTT assay relative to control", "type": "functional", "details": "read-out: Activity", "units": {"viability at 6.25 µg/mL": "%"}, "values": [{"smiles": "Cc1ccc2ccc3c(c2n1)OC(/N=C/N(C)C)=C(C#N)C3c1ccc(Cl)cc1", "note": "(configuration not stated)", "viability at 6.25 µg/mL": 74.2}, {"smiles": "N#CC1=C(/N=C/c2ccccc2)Oc2c(ccc3cccnc23)C1c1ccc(Cl)cc1", "note": "(configuration not stated)", "viability at 6.25 µg/mL": 19.4}]}, {"system": "MCF7", "assay": "Cytotoxicity against Homo sapiens (human) MCF7 cells assessed as cell viability at 1.56 ug/ml after 48 hr by MTT assay relative to control", "type": "functional", "details": "MCF7, 48 h, read-out: Activity", "units": {"viability at 1.56 µg/mL": "%"}, "values": [{"smiles": "Cc1ccc2ccc3c(c2n1)OC(/N=C/N(C)C)=C(C#N)C3c1ccc(Cl)cc1", "note": "(configuration not stated)", "viability at 1.56 µg/mL": 97}, {"smiles": "N#CC1=C(/N=C/c2ccccc2)Oc2c(ccc3cccnc23)C1c1ccc(Cl)cc1", "note": "(configuration not stated)", "viability at 1.56 µg/mL": 55}]}, {"system": "MCF7", "assay": "Cytotoxicity against Homo sapiens (human) MCF7 cells assessed as cell viability at 3.125 ug/ml after 48 hr by MTT assay relative to control", "type": "functional", "details": "MCF7, 48 h, read-out: Activity", "units": {"viability at 3.125 µg/mL": "%"}, "values": [{"smiles": "Cc1ccc2ccc3c(c2n1)OC(/N=C/N(C)C)=C(C#N)C3c1ccc(Cl)cc1", "note": "(configuration not stated)", "viability at 3.125 µg/mL": 87.2}, {"smiles": "N#CC1=C(/N=C/c2ccccc2)Oc2c(ccc3cccnc23)C1c1ccc(Cl)cc1", "note": "(configuration not stated)", "viability at 3.125 µg/mL": 48.3}]}, {"system": "MCF7", "assay": "Cytotoxicity against Homo sapiens (human) MCF7 cells assessed as cell viability at 12.5 ug/ml after 48 hr by MTT assay relative to control", "type": "functional", "details": "MCF7, 48 h, read-out: Activity", "units": {"viability at 12.5 µg/mL": "%"}, "values": [{"smiles": "Cc1ccc2ccc3c(c2n1)OC(/N=C/N(C)C)=C(C#N)C3c1ccc(Cl)cc1", "note": "(configuration not stated)", "viability at 12.5 µg/mL": 68.2}, {"smiles": "N#CC1=C(/N=C/c2ccccc2)Oc2c(ccc3cccnc23)C1c1ccc(Cl)cc1", "note": "(configuration not stated)", "viability at 12.5 µg/mL": 37.2}]}, {"system": "MCF7", "assay": "Cytotoxicity against Homo sapiens (human) MCF7 cells assessed as cell viability at 6.25 ug/ml after 48 hr by MTT assay relative to control", "type": "functional", "details": "MCF7, 48 h, read-out: Activity", "units": {"viability at 6.25 µg/mL": "%"}, "values": [{"smiles": "Cc1ccc2ccc3c(c2n1)OC(/N=C/N(C)C)=C(C#N)C3c1ccc(Cl)cc1", "note": "(configuration not stated)", "viability at 6.25 µg/mL": 76.9}, {"smiles": "N#CC1=C(/N=C/c2ccccc2)Oc2c(ccc3cccnc23)C1c1ccc(Cl)cc1", "note": "(configuration not stated)", "viability at 6.25 µg/mL": 40.8}]}, {"system": "MCF7", "assay": "Cytotoxicity against Homo sapiens (human) MCF7 cells assessed as cell viability at 50 ug/ml after 48 hr by MTT assay relative to control", "type": "functional", "details": "MCF7, 48 h, read-out: Activity", "units": {"viability at 50 µg/mL": "%"}, "values": [{"smiles": "Cc1ccc2ccc3c(c2n1)OC(/N=C/N(C)C)=C(C#N)C3c1ccc(Cl)cc1", "note": "(configuration not stated)", "viability at 50 µg/mL": 35}, {"smiles": "N#CC1=C(/N=C/c2ccccc2)Oc2c(ccc3cccnc23)C1c1ccc(Cl)cc1", "note": "(configuration not stated)", "viability at 50 µg/mL": 26.5}]}, {"system": "MCF7", "assay": "Cytotoxicity against Homo sapiens (human) MCF7 cells assessed as cell viability at 25 ug/ml after 48 hr by MTT assay relative to control", "type": "functional", "details": "MCF7, 48 h, read-out: Activity", "units": {"viability at 25 µg/mL": "%"}, "values": [{"smiles": "Cc1ccc2ccc3c(c2n1)OC(/N=C/N(C)C)=C(C#N)C3c1ccc(Cl)cc1", "note": "(configuration not stated)", "viability at 25 µg/mL": 49.6}, {"smiles": "N#CC1=C(/N=C/c2ccccc2)Oc2c(ccc3cccnc23)C1c1ccc(Cl)cc1", "note": "(configuration not stated)", "viability at 25 µg/mL": 33.3}]}, {"system": "not listed separately", "assay": "Cytotoxicity against Homo sapiens (human) HCT cells assessed as cell viability at 3.125 ug/ml after 48 hr by MTT assay relative to control", "type": "functional", "details": "read-out: Activity", "units": {"viability at 3.125 µg/mL": "%"}, "values": [{"smiles": "Cc1ccc2ccc3c(c2n1)OC(/N=C/N(C)C)=C(C#N)C3c1ccc(Cl)cc1", "note": "(configuration not stated)", "viability at 3.125 µg/mL": 78.7}, {"smiles": "N#CC1=C(/N=C/c2ccccc2)Oc2c(ccc3cccnc23)C1c1ccc(Cl)cc1", "note": "(configuration not stated)", "viability at 3.125 µg/mL": 30.2}]}, {"system": "not listed separately", "assay": "Cytotoxicity against Homo sapiens (human) HCT cells assessed as cell viability at 12.5 ug/ml after 48 hr by MTT assay relative to control", "type": "functional", "details": "read-out: Activity", "units": {"viability at 12.5 µg/mL": "%"}, "values": [{"smiles": "Cc1ccc2ccc3c(c2n1)OC(/N=C/N(C)C)=C(C#N)C3c1ccc(Cl)cc1", "note": "(configuration not stated)", "viability at 12.5 µg/mL": 69.7}, {"smiles": "N#CC1=C(/N=C/c2ccccc2)Oc2c(ccc3cccnc23)C1c1ccc(Cl)cc1", "note": "(configuration not stated)", "viability at 12.5 µg/mL": 14.8}]}, {"system": "not listed separately", "assay": "Cytotoxicity against Homo sapiens (human) HCT cells assessed as cell viability at 25 ug/ml after 48 hr by MTT assay relative to control", "type": "functional", "details": "read-out: Activity", "units": {"viability at 25 µg/mL": "%"}, "values": [{"smiles": "Cc1ccc2ccc3c(c2n1)OC(/N=C/N(C)C)=C(C#N)C3c1ccc(Cl)cc1", "note": "(configuration not stated)", "viability at 25 µg/mL": 53.5}, {"smiles": "N#CC1=C(/N=C/c2ccccc2)Oc2c(ccc3cccnc23)C1c1ccc(Cl)cc1", "note": "(configuration not stated)", "viability at 25 µg/mL": 11.6}]}, {"system": "not listed separately", "assay": "Cytotoxicity against Homo sapiens (human) HCT cells assessed as cell viability at 50 ug/ml after 48 hr by MTT assay relative to control", "type": "functional", "details": "read-out: Activity", "units": {"viability at 50 µg/mL": "%"}, "values": [{"smiles": "Cc1ccc2ccc3c(c2n1)OC(/N=C/N(C)C)=C(C#N)C3c1ccc(Cl)cc1", "note": "(configuration not stated)", "viability at 50 µg/mL": 30.5}, {"smiles": "N#CC1=C(/N=C/c2ccccc2)Oc2c(ccc3cccnc23)C1c1ccc(Cl)cc1", "note": "(configuration not stated)", "viability at 50 µg/mL": 9.13}]}, {"system": "MCF7", "assay": "Cytotoxicity against Homo sapiens (human) MCF7 cells after 48 hr by MTT assay", "type": "functional, cell-based", "details": "MCF7, 48 h", "units": {"IC50": "µg/mL"}, "values": [{"smiles": "Cc1ccc2ccc3c(c2n1)OC(/N=C/N(C)C)=C(C#N)C3c1ccc(Cl)cc1", "note": "(configuration not stated)", "IC50": 24.4}, {"smiles": "N#CC1=C(/N=C/c2ccccc2)Oc2c(ccc3cccnc23)C1c1ccc(Cl)cc1", "note": "(configuration not stated)", "IC50": 2.8}]}]}
